ChEMBL document CHEMBL1201862, “PubChem BioAssay data set” (2004)
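Cells were grown in 96-well plates and exposed to each compound for 48 hours at five concentrations; endpoints were interpolated linearly between bracketing concentrations, or set to the highest concentration if not reached. GI50 = concentration required for 50% inhibition of growth.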 Activity calls are given as the source filed them. Cut-off read from the data, not from the text of the source: active = GI50 up to about 1.1 µM and inactive = higher.

Tests used:
Experiment in all cases: NCI-60 cell line screen, 48 h
786-0 = tested on: 786-0
A498 = tested on: A498
ACHN = tested on: ACHN
BT-549 = tested on: BT-549
CAKI-1 = tested on: CAKI-1
DU-145 = tested on: DU-145
HCT-116 = tested on: HCT-116
Hs-578T = tested on: Hs-578T
NCI-H226 = tested on: NCI-H226
OVCAR-3 = tested on: OVCAR-3
OVCAR-5 = tested on: OVCAR-5
OVCAR-8 = tested on: OVCAR-8
PC-3 = tested on: PC-3
RPMI-8226 = tested on: RPMI-8226
RXF 393 = tested on: RXF 393
SF-295 = tested on: SF-295
SF-539 = tested on: SF-539
UACC-257 = tested on: UACC-257
UO-31 = tested on: UO-31
Malme-3M = tested on: Malme-3M

Measured: GI50

COc1ccc(NC=O)c(C(O)CCNC(C)=O)c1 (stereo not given)
inactive: 786-0 > 100 µM | A498 > 100 µM | ACHN > 100 µM | BT-549 > 100 µM | CAKI-1 > 100 µM | DU-145 > 100 µM | HCT-116 > 100 µM | Hs-578T > 100 µM | NCI-H226 > 100 µM | OVCAR-3 > 100 µM | OVCAR-5 > 100 µM | OVCAR-8 > 100 µM | PC-3 > 100 µM | RPMI-8226 > 100 µM | RXF 393 > 100 µM | SF-295 > 100 µM | SF-539 > 100 µM | UACC-257 > 100 µM | UO-31 > 100 µM

COc1ccc(-c2cc(=O)c3c(O)cc(O)cc3o2)cc1OC
inactive: 786-0 68.9 µM | A498 4.57 µM | ACHN 35.5 µM | BT-549 17.9 µM | DU-145 57 µM | HCT-116 28.2 µM | Hs-578T 11.5 µM | Malme-3M > 100 µM | NCI-H226 > 100 µM | OVCAR-3 46 µM | OVCAR-5 > 100 µM | PC-3 55.1 µM | RPMI-8226 64.9 µM | RXF 393 46.3 µM | SF-295 44.8 µM | SF-539 18.4 µM | UACC-257 > 100 µM | UO-31 36.7 µM

CC(C)Oc1c(C2(c3ccccc3)SCCCS2)c(=O)c1=O
inactive: 786-0 > 100 µM | A498 > 100 µM | ACHN > 100 µM | BT-549 > 100 µM | CAKI-1 > 100 µM | DU-145 > 100 µM | HCT-116 > 100 µM | Hs-578T 84.7 µM | NCI-H226 > 100 µM | OVCAR-3 > 100 µM | OVCAR-5 > 100 µM | OVCAR-8 > 100 µM | PC-3 > 100 µM | RXF 393 > 100 µM | SF-295 > 100 µM | SF-539 > 100 µM | UACC-257 > 100 µM | UO-31 > 100 µM

O=C(CCc1ccc(O)c(O)c1)NCCc1cc(OCc2ccccc2)cc(OCc2ccccc2)c1
inactive: 786-0 13.3 µM | A498 15.7 µM | ACHN 5.47 µM | BT-549 6.07 µM | CAKI-1 4.45 µM | DU-145 14.1 µM | HCT-116 11.8 µM | Hs-578T 9.29 µM | NCI-H226 20.1 µM | OVCAR-3 5.92 µM | OVCAR-5 13.1 µM | OVCAR-8 13.6 µM | PC-3 8.09 µM | RPMI-8226 5.27 µM | RXF 393 10.1 µM | SF-295 18.1 µM | SF-539 11.7 µM | UACC-257 28.1 µM | UO-31 2.13 µM

C=CCC1(O)c2cccc(O)c2C(=O)c2cccc(O)c21 (stereo not given)
inactive: 786-0 19.3 µM | A498 13.3 µM | ACHN 22.8 µM | BT-549 16.8 µM | CAKI-1 21.7 µM | DU-145 17.6 µM | HCT-116 14.4 µM | Hs-578T 14.9 µM | NCI-H226 22.3 µM | OVCAR-3 12.3 µM | OVCAR-5 22.5 µM | OVCAR-8 25.8 µM | PC-3 16.9 µM | RPMI-8226 11.5 µM | RXF 393 15.7 µM | SF-295 9.35 µM | SF-539 31.8 µM | UACC-257 13 µM | UO-31 15.4 µM

NC12CC3CC4C1CC1CC2C(C3)C4(N)C1
inactive: 786-0 > 100 µM | A498 > 100 µM | ACHN > 100 µM | BT-549 > 100 µM | CAKI-1 > 100 µM | DU-145 > 100 µM | HCT-116 > 100 µM | Hs-578T > 100 µM | Malme-3M > 100 µM | NCI-H226 > 100 µM | OVCAR-3 > 100 µM | OVCAR-5 > 100 µM | OVCAR-8 > 100 µM | PC-3 > 100 µM | RXF 393 > 100 µM | SF-295 > 100 µM | UACC-257 > 100 µM | UO-31 > 100 µM

O=C1Nc2ccccc2/C1=N/Nc1nc(-c2cccc([N+](=O)[O-])c2)cs1
inactive: 786-0 16.3 µM | A498 21.8 µM | ACHN 31.4 µM | BT-549 36.3 µM | CAKI-1 19.2 µM | DU-145 25.6 µM | HCT-116 19.2 µM | Hs-578T 20.1 µM | NCI-H226 19.2 µM | OVCAR-3 34.8 µM | OVCAR-5 > 100 µM | OVCAR-8 15.9 µM | PC-3 28.2 µM | RXF 393 29.5 µM | SF-295 20.7 µM | SF-539 24 µM | UACC-257 19.3 µM | UO-31 55.3 µM

O=C1c2ccccc2-c2c1c(-c1ccccc1)c1n2C2(C(=O)c3ccccc3C2=O)C2C(=O)N(c3ccccc3)C(=O)C12 (stereo not given)
inactive: 786-0 23.4 µM | A498 28.1 µM | ACHN 31.9 µM | BT-549 17.5 µM | CAKI-1 34.4 µM | DU-145 28.5 µM | HCT-116 17.9 µM | Hs-578T 17.8 µM | Malme-3M 23.9 µM | NCI-H226 19.3 µM | OVCAR-3 24.3 µM | OVCAR-5 17.4 µM | OVCAR-8 32.2 µM | PC-3 26.6 µM | RXF 393 17.6 µM | SF-295 34.4 µM | SF-539 15.4 µM | UACC-257 30.6 µM | UO-31 28.4 µM

COc1cc(C(O)c2ccc3c(c2)OCO3)cc(OC)c1OC (stereo not given)
inactive: 786-0 > 100 µM | A498 > 100 µM | ACHN > 100 µM | BT-549 > 100 µM | CAKI-1 > 100 µM | DU-145 > 100 µM | HCT-116 > 100 µM | Hs-578T > 100 µM | Malme-3M > 100 µM | NCI-H226 > 100 µM | OVCAR-3 > 100 µM | OVCAR-5 > 100 µM | OVCAR-8 > 100 µM | PC-3 > 100 µM | RPMI-8226 > 100 µM | SF-295 > 100 µM | SF-539 > 100 µM | UACC-257 > 100 µM | UO-31 61.2 µM

COc1cc2c(cc1OC)C(c1ccccc1CCCCl)=NCC2
inactive: 786-0 > 100 µM | A498 > 100 µM | ACHN > 100 µM | BT-549 38.3 µM | CAKI-1 > 100 µM | DU-145 > 100 µM | HCT-116 45.9 µM | Hs-578T 69 µM | NCI-H226 80.4 µM | OVCAR-3 > 100 µM | OVCAR-5 > 100 µM | OVCAR-8 97.5 µM | PC-3 49.9 µM | RPMI-8226 14.3 µM | RXF 393 > 100 µM | SF-295 68.7 µM | SF-539 > 100 µM | UACC-257 53.1 µM | UO-31 85.9 µM

CSCCCNC(=O)c1csc(-c2csc(C(CNC(=O)OC(C)(C)C)CNC(=O)OC(C)(C)C)n2)n1
inactive: 786-0 50.4 µM | A498 55.2 µM | ACHN 30.9 µM | BT-549 34.5 µM | CAKI-1 59.6 µM | DU-145 76.2 µM | HCT-116 31.4 µM | Hs-578T 45.8 µM | NCI-H226 42.5 µM | OVCAR-3 60 µM | OVCAR-5 67 µM | OVCAR-8 33.9 µM | PC-3 28.4 µM | RPMI-8226 14.3 µM | RXF 393 68.5 µM | SF-295 38.6 µM | SF-539 45 µM | UACC-257 40.6 µM | UO-31 31.8 µM
